# Patent publication US20050112573A1, “Method of detecting toxic substance” (priority 2001, published 2005)
# Test system: yeast genes (level of expressed mRNA)
# Test: DNA chip analysis of expressed mRNA of yeast genes after 2 h culture with a toxic chemical substance
# Assay type: cell-based, Saccharomyces cerevisiae S288C
# Procedure, shortened: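 S. cerevisiae S288C in YPD at 25 °C was exposed at log phase for 2 h to a growth-inhibiting, non-lethal concentration of the chemical. Poly(A) mRNA was reverse-transcribed with Cy3- or Cy5-dUTP and hybridized to a whole-genome yeast DNA chip (65 °C, >12 h). Values are fluorescence ratios versus untreated cells.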
substance,measurement,setting,value
CdCl2 [(2)],The level of expressed mRNA in the presence of chemical substance/,"yeast gene YFL010C, ratio to control without chemical substance, 2 h culture",4.8
same,The level of expressed mRNA in the presence of chemical substance/,"yeast gene YFL024C, ratio to control without chemical substance, 2 h culture",1.1
same,The level of expressed mRNA in the presence of chemical substance/The level of expressed mRNA in the absence of chemical substance,yeast gene YFL028C,1.1
same,The level of expressed mRNA in the presence of chemical substance/,"yeast gene YFL032W, ratio to control without chemical substance, 2 h culture",1.5
same,The level of expressed mRNA in the presence of chemical substance/The level of expressed mRNA in the absence of chemical substance,yeast gene YFL043C,1.2
same,The level of expressed mRNA in the presence of chemical substance/in the absence of chemical substance,yeast gene YGL035C,1.4
same,The level of expressed mRNA in the presence of chemical substance/,"yeast gene YGL037C, ratio to control without chemical substance, 2 h culture",2.7
same,The level of expressed mRNA in the presence of chemical substance/,"yeast gene YGL047W, ratio to control without chemical substance, 2 h culture",1.9
same,The level of expressed mRNA in the presence of chemical substance/,"yeast gene YGL053W, ratio to control without chemical substance, 2 h culture",1.5
same,The level of expressed mRNA in the presence of chemical substance/,"yeast gene YGL121C, ratio to control without chemical substance, 2 h culture",5.0
same,The level of expressed mRNA in the presence of chemical substance/The level of expressed mRNA in the absence of chemical substance,yeast gene YGL158W,2.8
same,The level of expressed mRNA in the presence of chemical substance/,"yeast gene YGL199C, ratio to control without chemical substance, 2 h culture",1.7
same,The level of expressed mRNA in the presence of chemical substance/The level of expressed mRNA in the absence of chemical substance,yeast gene YGL229C,0.7
same,The level of expressed mRNA in the presence of chemical substance/,"yeast gene YGR101W, ratio to control without chemical substance, 2 h culture",1.3
same,The level of expressed mRNA in the presence of chemical substance/,"yeast gene YGR110W, ratio to control without chemical substance, 2 h culture",3.1
same,The level of expressed mRNA in the presence of chemical substance/,"yeast gene YGR130C, ratio to control without chemical substance, 2 h culture",0.7
same,The level of expressed mRNA in the presence of chemical substance/The level of expressed mRNA in the absence of chemical substance,yeast gene YGR136W,1.2
same,The level of expressed mRNA in the presence of chemical substance/,"yeast gene YGR154C, ratio to control without chemical substance, 2 h culture",2.9
same,The level of expressed mRNA in the presence of chemical substance/The level of expressed mRNA in the absence of chemical substance,yeast gene YGR189C,0.9
same,The level of expressed mRNA in the presence of chemical substance/The level of expressed mRNA in the absence of chemical substance,yeast gene YGR213C,2.9
same,The level of expressed mRNA in the presence of chemical substance/,"yeast gene YGR221C, ratio to control without chemical substance, 2 h culture",2.2
same,The level of expressed mRNA in the presence of chemical substance/The level of expressed mRNA in the absence of chemical substance,yeast gene YGR257C,0.8
same,The level of expressed mRNA in the presence of chemical substance/in the absence of chemical substance,yeast gene YGR287C,1.0
same,The level of expressed mRNA in the presence of chemical substance/The level of expressed mRNA in the absence of chemical substance,yeast gene YHR004C,1.1
same,The level of expressed mRNA in the presence of chemical substance/The level of expressed mRNA in the absence of chemical substance,yeast gene YHR071W,1.1
same,The level of expressed mRNA in the presence of chemical substance/,"yeast gene YHR138C, ratio to control without chemical substance, 2 h culture",1.8
same,The level of expressed mRNA in the presence of chemical substance/The level of expressed mRNA in the absence of chemical substance,yeast gene YHR139C,4.6
same,The level of expressed mRNA in the presence of chemical substance/The level of expressed mRNA in the absence of chemical substance,yeast gene YHR142W,0.8
same,The level of expressed mRNA in the presence of chemical substance/,"yeast gene YHR199C, ratio to control without chemical substance, 2 h culture",2.0
same,The level of expressed mRNA in the presence of chemical substance/,"yeast gene YIL023C, ratio to control without chemical",1.2
same,The level of expressed mRNA in the presence of chemical substance/,"yeast gene YIL041W, ratio to control without chemical substance, 2 h culture",1.2
same,The level of expressed mRNA in the presence of chemical substance/,"yeast gene YIL087C, ratio to control without chemical substance, 2 h culture",1.9
same,The level of expressed mRNA in the presence of chemical substance/The level of expressed mRNA in the absence of chemical substance,yeast gene YIL123W,0.5
same,The level of expressed mRNA in the presence of chemical substance/The level of expressed mRNA in the absence of chemical substance,yeast gene YIL140W,1.0
same,The level of expressed mRNA in the presence of chemical substance/,"yeast gene YJL057C, ratio to control without chemical substance, 2 h culture",1.2
same,The level of expressed mRNA in the presence of chemical substance/,"yeast gene YJL066C, ratio to control without chemical substance, 2 h culture",1.2
same,The level of expressed mRNA in the presence of chemical substance/in the absence of chemical substance,yeast gene YJL070C,0.9
same,The level of expressed mRNA in the presence of chemical substance/The level of expressed mRNA in the absence of chemical substance,yeast gene YJL073W,0.8
same,The level of expressed mRNA in the presence of chemical substance/,"yeast gene YJL082W, ratio to control without chemical substance, 2 h culture",0.8
same,The level of expressed mRNA in the presence of chemical substance/The level of expressed mRNA in the absence of chemical substance,yeast gene YJL089W,1.5
same,The level of expressed mRNA in the presence of chemical substance/The level of expressed mRNA in the absence of chemical substance,yeast gene YJL116C,1.8
same,The level of expressed mRNA in the presence of chemical substance/,"yeast gene YJL151C, ratio to control without chemical substance, 2 h culture",2.4
same,The level of expressed mRNA in the presence of chemical substance/,"yeast gene YJL152W, ratio to control without chemical substance, 2 h culture",1.5
same,The level of expressed mRNA in the presence of chemical substance/,"yeast gene YJL161W, ratio to control without chemical substance, 2 h culture",2.2
same,The level of expressed mRNA in the presence of chemical substance/in the absence of chemical substance,yeast gene YJL167W,1.4
same,The level of expressed mRNA in the presence of chemical substance/,"yeast gene YJL171C, ratio to control without chemical substance, 2 h culture",0.7
same,The level of expressed mRNA in the presence of chemical substance/in the absence of chemical substance,yeast gene YJL216C,4.7
same,The level of expressed mRNA in the presence of chemical substance/The level of expressed mRNA in the absence of chemical substance,yeast gene YJR004C,0.8
same,The level of expressed mRNA in the presence of chemical substance/,"yeast gene YJR008W, ratio to control without chemical substance, 2 h culture",1.5
same,The level of expressed mRNA in the presence of chemical substance/,"yeast gene YJR054W, ratio to control without chemical",0.9
same,The level of expressed mRNA in the presence of chemical substance/The level of expressed mRNA in the absence of chemical substance,yeast gene YJR086W,1.1
same,The level of expressed mRNA in the presence of chemical substance/The level of expressed mRNA in the absence of chemical substance,yeast gene YKL008C,0.6
same,The level of expressed mRNA in the presence of chemical substance/The level of expressed mRNA in the absence of chemical substance,yeast gene YKL013C,0.9
same,The level of expressed mRNA in the presence of chemical substance/The level of expressed mRNA in the absence of chemical substance,yeast gene YKL039W,1.1
same,The level of expressed mRNA in the presence of chemical substance/The level of expressed mRNA in the absence of chemical substance,yeast gene YKL041W,0.8
same,The level of expressed mRNA in the presence of chemical substance/,"yeast gene YKL071W, ratio to control without chemical substance, 2 h culture",3.8
